Laboratory results: ChEMBL document CHEMBL1201862, “PubChem BioAssay data set” (2004)
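Step 1: Grow cells in 96-well plates. Step 2: Expose to compound for 48 hours at 5 concentrations. Step 3: Interpolate endpoints linearly; if unreached, use highest concentration. GI50 = concentration required for 50% inhibition of growth.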 Calls of active or inactive are those of the source. No stated cut-off is given here; in the data, active = GI50 up to about 1.1 µM and inactive = higher.

Experiments:
Assay in all cases: growth of human tumour cells (NCI), 48 h
[1] = test system: OVCAR-4
[2] = test system: Malme-3M
[3] = test system: OVCAR-5
[4] = test system: ACHN
[5] = test system: TK-10
[6] = test system: A498
[7] = test system: DLD-1
[8] = test system: SF-268
[9] = test system: 786-0
[10] = test system: HOP-92
[11] = test system: K562
[12] = test system: NCI-H226
[13] = test system: COLO 205
[14] = test system: SN12C
[15] = test system: SK-MEL-28
[16] = test system: HT-29
[17] = test system: UACC-257

Row | Compound | GI50 [1] | GI50 [2] | GI50 [3] | GI50 [4] | GI50 [5] | GI50 [6] | GI50 [7] | GI50 [8] | GI50 [9] | GI50 [10] | GI50 [11] | GI50 [12] | GI50 [13] | GI50 [14] | GI50 [15] | GI50 [16] | GI50 [17]
1 | Cc1ccc2oc(=O)cc(CC(=O)O)c2c1 | > 100 µM (inactive) | > 100 µM (inactive) | > 100 µM (inactive) | > 100 µM (inactive) | > 100 µM (inactive) | > 100 µM (inactive) | > 100 µM (inactive) | > 100 µM (inactive) | > 100 µM (inactive) | > 100 µM (inactive) | > 100 µM (inactive) | > 100 µM (inactive) | > 100 µM (inactive) | > 100 µM (inactive) | > 100 µM (inactive) | > 100 µM (inactive) | –
2 | [O-][S+]1Nc2c(Cl)cc(Cl)c(Cl)c2S1 (stereo not given) | > 100 µM (inactive) | > 100 µM (inactive) | > 100 µM (inactive) | > 100 µM (inactive) | > 100 µM (inactive) | 82.6 µM (inactive) | 95.7 µM (inactive) | > 100 µM (inactive) | > 100 µM (inactive) | 35.2 µM (inactive) | 74.3 µM (inactive) | > 100 µM (inactive) | > 100 µM (inactive) | > 100 µM (inactive) | > 100 µM (inactive) | > 100 µM (inactive) | > 100 µM (inactive)
3 | CC12OC3(C)OC(=O)C(c4ccccc4)(O1)C3(C)O2 (stereo not given) | > 100 µM (inactive) | > 100 µM (inactive) | > 100 µM (inactive) | > 100 µM (inactive) | > 100 µM (inactive) | > 100 µM (inactive) | > 100 µM (inactive) | > 100 µM (inactive) | > 100 µM (inactive) | > 100 µM (inactive) | > 100 µM (inactive) | > 100 µM (inactive) | > 100 µM (inactive) | > 100 µM (inactive) | > 100 µM (inactive) | > 100 µM (inactive) | > 100 µM (inactive)
4 | C/C(=N\NS(=O)(=O)c1c(C)cc(C)cc1C)c1ccc[n+]([O-])n1 | 12.8 µM (inactive) | – | 26.8 µM (inactive) | 14.2 µM (inactive) | – | 29.5 µM (inactive) | 7.16 µM (inactive) | 20.1 µM (inactive) | 14.3 µM (inactive) | 9.95 µM (inactive) | 4.44 µM (inactive) | – | – | 14.9 µM (inactive) | 13.3 µM (inactive) | 18.3 µM (inactive) | 10.3 µM (inactive)
5 | COc1ccc2oc(C(=O)O)c3c2c1CCC3 | > 100 µM (inactive) | – | – | > 100 µM (inactive) | > 100 µM (inactive) | > 100 µM (inactive) | > 100 µM (inactive) | – | > 100 µM (inactive) | 42.5 µM (inactive) | > 100 µM (inactive) | – | > 100 µM (inactive) | > 100 µM (inactive) | > 100 µM (inactive) | > 100 µM (inactive) | > 100 µM (inactive)
6 | COc1ccc(/N=N/c2c(-c3ccccc3)nn(C(=O)CC(=O)Nc3ccc(OC)cc3)c2-c2ccccc2)cc1 | > 100 µM (inactive) | > 100 µM (inactive) | > 100 µM (inactive) | 97.3 µM (inactive) | 52.7 µM (inactive) | 33.2 µM (inactive) | > 100 µM (inactive) | 48.5 µM (inactive) | 48.6 µM (inactive) | 16 µM (inactive) | 27 µM (inactive) | > 100 µM (inactive) | > 100 µM (inactive) | > 100 µM (inactive) | > 100 µM (inactive) | > 100 µM (inactive) | > 100 µM (inactive)
7 | CC12CCC3(OCCO3)C(OC(=O)c3ccccc3)=C1CCC21OCCO1 (stereo not given) | > 100 µM (inactive) | > 100 µM (inactive) | > 100 µM (inactive) | > 100 µM (inactive) | > 100 µM (inactive) | > 100 µM (inactive) | > 100 µM (inactive) | > 100 µM (inactive) | > 100 µM (inactive) | > 100 µM (inactive) | – | 4.7 µM (inactive) | 63.1 µM (inactive) | > 100 µM (inactive) | > 100 µM (inactive) | > 100 µM (inactive) | > 100 µM (inactive)
8 | O=C1NC(=O)C(=O)C(c2nc3ccccc3s2)C1=O | > 100 µM (inactive) | > 100 µM (inactive) | – | > 100 µM (inactive) | > 100 µM (inactive) | > 100 µM (inactive) | > 100 µM (inactive) | > 100 µM (inactive) | > 100 µM (inactive) | > 100 µM (inactive) | – | > 100 µM (inactive) | > 100 µM (inactive) | > 100 µM (inactive) | > 100 µM (inactive) | > 100 µM (inactive) | > 100 µM (inactive)
9 | O=C(CC(=O)c1cccc([N+](=O)[O-])c1)C(=O)Nc1nc([N+](=O)[O-])cs1 | 0.0307 µM (active) | > 100 µM (inactive) | > 100 µM (inactive) | – | > 100 µM (inactive) | > 100 µM (inactive) | > 100 µM (inactive) | > 100 µM (inactive) | > 100 µM (inactive) | > 100 µM (inactive) | 94.8 µM (inactive) | > 100 µM (inactive) | > 100 µM (inactive) | > 100 µM (inactive) | > 100 µM (inactive) | > 100 µM (inactive) | > 100 µM (inactive)
10 | NC(=O)OCC(COc1ccc(Cl)cc1)OC(=O)c1ccccc1Cl (stereo not given) | – | 20.3 µM (inactive) | 20.6 µM (inactive) | 31.6 µM (inactive) | 28.8 µM (inactive) | > 100 µM (inactive) | 18.5 µM (inactive) | 24.8 µM (inactive) | 19.4 µM (inactive) | 17.1 µM (inactive) | 20.7 µM (inactive) | 25.1 µM (inactive) | 17.5 µM (inactive) | 16.6 µM (inactive) | 18.6 µM (inactive) | 17.6 µM (inactive) | 19 µM (inactive)
11 | CCC(CC)n1cc(C(=O)NC(=O)NCCCCCOC(=O)CCCCCCCCCCC(=O)OCCCCCNC(=O)NC(=O)c2cn(C(CC)CC)c(=O)[nH]c2=O)c(=O)[nH]c1=O | > 100 µM (inactive) | > 100 µM (inactive) | > 100 µM (inactive) | > 100 µM (inactive) | > 100 µM (inactive) | > 100 µM (inactive) | > 100 µM (inactive) | > 100 µM (inactive) | 45.8 µM (inactive) | > 100 µM (inactive) | > 100 µM (inactive) | > 100 µM (inactive) | > 100 µM (inactive) | > 100 µM (inactive) | > 100 µM (inactive) | > 100 µM (inactive) | > 100 µM (inactive)
12 | O=C1/C(=C/c2ccccc2)CNC/C1=C\c1ccccc1 | 1.43 µM (inactive) | 3.26 µM (inactive) | 2.44 µM (inactive) | 2.05 µM (inactive) | 2.4 µM (inactive) | 1.97 µM (inactive) | 0.329 µM (active) | 2.2 µM (inactive) | 1.57 µM (inactive) | 8.13 µM (inactive) | 0.52 µM (active) | 2.42 µM (inactive) | 1.58 µM (inactive) | 1.69 µM (inactive) | 1.92 µM (inactive) | 0.841 µM (active) | 5.51 µM (inactive)
